Source: US20100216779A1 (GLAXOSMITHKLINE LLC, priority 2007, published 2010)

System: BT474 cell tumors (breast carcinoma cell line)
Experiment: In vivo efficacy, BT474 tumor bearing mice
Parameters: species or system mouse
Experimental: In addition to the LISN xenograft efficacy studies, Example 57 has also been assessed in vivo in two other mouse models of cancer, including: Colo-205 tumor bearing mice (colon carcinoma cell line) and BT474 tumor bearing mice (breast carcinoma cell line). Forty female nude mice bearing Colo-205 tumors (average tumor size of 200 mm3) were randomized into five groups of eight mice and dosed with either vehicle (20% SBE pH3.5) or Example 57 at 100, 30, 10 mg/kg QD or 30 mg/kg BID for 21 days. The groups of mice dosed with the higher doses of Example 57 (100 mg/kg QD and 30 mg/kg BID) lost greater than 20% body weight within 10 days of dosing so were taken off the study and allowed to recover. […] The higher doses of 100 mg/kg QDx10 and 30 mg/kg BIDx10 achieved 72 and 49% tumor growth inhibition respectively.
Due to the body weight loss seen with the higher doses in the Colo-205 xenograft efficacy study, the dosing regime was altered for the follow up BT474 study. Forty female nude mice bearing subcutaneous BT474 cell tumors (average tumor size of 200 mm3) were randomized into five groups each containing eight mice and dosed with either vehicle (20% SBE pH3.5) or Example 57 at 60, 30 or 15 mg/kg QD or 15 mg/kg BID for 21 days. Note the maximal QD dose was reduced from 100 mg/kg to 60 mg/kg and the BID dose reduced from 30 mg/kg to 15 mg/kg. In addition to these changes the mice in this study were given weekend holidays from dosing.

With `COc1cc(N2CCC(N3CCN(CCF)CC3)CC2)ccc1Nc1nccc(-c2c(-c3cccc(C(=O)Nc4c(F)cccc4F)c3)nc3ccccn23)n1` [Example 57, N-(2,6-difluorophenyl)-3-[3-(2-{[4-{4-[4-(2-fluoroethyl)-1-piperazinyl]-1-piperidinyl}-2-(methyloxy)phenyl]amino}-4-pyrimidinyl)imidazo[1,2-a]pyridin-2-yl]benzamide] the tumor growth inhibition (BT474, 15 mg/kg BIDx21, weekend holidays from dosing) was 54%, the tumor growth inhibition (BT474, 30 mg/kg QDx21, weekend holidays from dosing) was 37% and the tumor growth inhibition (BT474, 60 mg/kg QDx21, weekend holidays from dosing) was 37%. For the same molecule, the body weight loss (BT474, all groups) was “no body weight loss” and the tumor growth inhibition (BT474, third QDx21 dose group (15 mg/kg QD per study design), weekend holidays from dosing) was 16%.
